Assay results: patent EP1156056A1, “5-GLYCOSYLOXY-6-HYDROXYNAPHTHO 2,3-f]QUINOLINE-7,12-DIONE HAVING ANTICANCER ACTIVITIES” (ZAIDAN HOJIN BISEIBUTSU KAGAKU KENKYU KAI, priority 1999, dated 2000)
≈ marks a conversion by molar mass, not a printed value. Where two headings read alike, the source gives them in different places.

How the values were obtained:
Assay type in all cases: cell-based
[1] = test system: mouse B-cell lymphoma (LB32T); assay: Inhibition of proliferation of cancer cells in culture (Test Examples 1 and 3)
Procedure: (§1) A culture medium for cancer cells was put into test tubes. To the culture medium in each tube, there was transplanted each of such various mouse cancer cells or human cancer cells as shown in Table 1 below. The cells so transplanted were cultivated under the conditions at 37°C in an air atmosphere containing 5 % CO2. To the medium containing the cancer cells so cultivated, there was added said Compounds A, B, D, E or F of this invention at different concentrations, as the test compound. […] As the comparative compound, adriamycin now clinically used was tested to repeat the test in the same way.
(§2) Namely, they are mouse colon cancer (colon 26), mouse B-cell lymphoma (LB32T), mouse lymphoma (L-1210), human cervical cancer (HeLa), human acute promyeloleukemia (HL60), human prostatic cancer (PC3), human pudendal squamous cell carcinoma (A431), human pulmonary carcinoma (PC6), human mastocarcinoma (MCF7), human esophageal carcinoma (TT), human prostatic cancer (LNcap) and human colon cancer (DLD-1).
(§3) The test method and the nature of cancer cells to be tested are the same as those in Test Example 1 given hereinbefore. In this Test Example 3, however, eight kinds of cancer cells indicated in Table 3 below are used, among the twelve kinds of cancer cells which were used in Test Example 1.
(§4) As the test results of measurement, the evaluated values of the concentration of each test compound which could inhibit the proliferation of cancer cells by 50 % (namely, 50 % inhibitory concentration:IC50, µg/ml) are given in Table 3.

[2] = test system: human prostatic cancer (PC3); assay: as above; details: for IC50: Homo sapiens; for anticancer activities against PC3, times higher than those of adriamycin: Test Example 1, relative to adriamycin
Procedure: as §1, §2, §3, §4

[3] = test system: human prostatic cancer (LNcap); assay: as above
Procedure: as §1, §2, §3, §4

[4] = test system: human acute promyeloleukemia (HL60); assay: as above
Procedure: as §1, §2, §3, §4

mouse lymphoma (L-1210) = assay: as above
Procedure: as §1, §2, §3, §4

[5] = test system: mouse colon cancer (colon 26); assay: as above
Procedure: as §1, §2, §3, §4

[6] = test system: human colon cancer (DLD-1); assay: as above; details: for IC50: Homo sapiens; for anticancer activities against DLD-1, times higher than those of adriamycin: Test Example 1, relative to adriamycin
Procedure: as §1, §2, §3, §4

[7] = test system: human cervical cancer (HeLa); assay: as above
Procedure: as §1, §2, §3, §4

[8] = test system: human pulmonary carcinoma (PC6); assay: Inhibition of proliferation of cancer cells in culture (Test Example 1); details: 72 hours cultivation, read-out: Concentration of test compound to inhibit the proliferation of cancer cells by 50 %
Procedure: as §1, §2

[9] = test system: human pudendal squamous cell carcinoma (A431); assay: as above; details: A-431, 72 hours cultivation, read-out: Concentration of test compound to inhibit the proliferation of cancer cells by 50 %
Procedure: as §1, §2

[10] = test system: human esophageal carcinoma (TT); assay: as above; details: 72 hours cultivation, read-out: Concentration of test compound to inhibit the proliferation of cancer cells by 50 %
Procedure: as §1, §2

[11] = test system: human mastocarcinoma (MCF7); assay: as above; details: 72 hours cultivation, read-out: Concentration of test compound to inhibit the proliferation of cancer cells by 50 %
Procedure: as §1, §2

[12] = Test Example 3, Compounds N to T used as trifluoroacetate, read-out: IC50
[13] = LNCap, Test Example 3, Compounds N to T used as trifluoroacetate, read-out: IC50
[14] = HL-60, Test Example 3, Compounds N to T used as trifluoroacetate, read-out: IC50
[15] = L1210, Test Example 3, Compounds N to T used as trifluoroacetate, read-out: IC50
[16] = Colon26, Test Example 3, Compounds N to T used as trifluoroacetate, read-out: IC50
[17] = 72 hours cultivation, Test Example 1, read-out: Concentration of test compound to inhibit the proliferation of cancer cells by 50 %, IC50
[18] = LNcap, 72 hours cultivation, Test Example 1, read-out: Concentration of test compound to inhibit the proliferation of cancer cells by 50 %, IC50
[19] = HL-60, 72 hours cultivation, Test Example 1, read-out: Concentration of test compound to inhibit the proliferation of cancer cells by 50 %, IC50
[20] = L1210, 72 hours cultivation, Test Example 1, read-out: Concentration of test compound to inhibit the proliferation of cancer cells by 50 %, IC50
[21] = colon26, 72 hours cultivation, Test Example 1, read-out: Concentration of test compound to inhibit the proliferation of cancer cells by 50 %, IC50

Row | IC50 [1, 12] [µg/mL] | IC50 [2, 12] [µg/mL] | IC50 [3, 13] [µg/mL] | IC50 [4, 14] [µg/mL] | IC50 (mouse lymphoma (L-1210); [15]) [µg/mL] | IC50 [5, 16] [µg/mL] | IC50 [6, 12] [µg/mL] | IC50 [7, 12] [µg/mL] | IC50 [8] [µg/mL] | IC50 [9] [µg/mL] | IC50 [10] [µg/mL] | IC50 [11] [µg/mL] | IC50 [1, 17] [µg/mL] | IC50 [2, 17] [µg/mL] | IC50 [3, 18] [µg/mL] | IC50 [4, 19] [µg/mL] | IC50 (mouse lymphoma (L-1210); [20]) [µg/mL] | IC50 [6, 17] [µg/mL] | IC50 [7, 17] [µg/mL] | Structure (SMILES) | anticancer activities against PC3, times higher than those of adriamycin [2] [times] | also measured
1 | 0.82 (≈ 1.41 µM) | 0.55 (≈ 0.946 µM) | 1.46 (≈ 2.51 µM) | 0.6 (≈ 1.03 µM) | 1.27 (≈ 2.18 µM) | 0.91 (≈ 1.56 µM) | 0.46 (≈ 0.791 µM) | 0.89 (≈ 1.53 µM) | – | – | – | – | – | – | – | – | – | – | – | C[C@@H]1O[C@@H](Oc2c(O)c3c(c4cccnc24)C(=O)c2ccccc2C3=O)[C@H](F)[C@H](OC(=O)CCN)[C@@H]1OC(=O)CCN [Compound P, 5-[3,4-di-O-(3-aminopropionyl)-2,6-dideoxy-2-fluoro-α-L-talopyranosyloxy]-6-hydroxynaphtho [2,3-f]quinoline-7,12-dione] | – | –
2 | – | – | – | – | – | – | – | – | 1.06 (≈ 2.41 µM) | 1.26 (≈ 2.87 µM) | 1.18 (≈ 2.69 µM) | 1.24 (≈ 2.82 µM) | 0.3 (≈ 0.683 µM) | 0.11 (≈ 0.25 µM) | 0.31 (≈ 0.706 µM) | 0.35 (≈ 0.797 µM) | 0.47 (≈ 1.07 µM) | 0.12 (≈ 0.273 µM) | 0.45 (≈ 1.02 µM) | C[C@@H]1O[C@@H](Oc2c(O)c3c(c4cccnc24)C(=O)c2ccccc2C3=O)[C@@H](F)[C@H](O)[C@@H]1O [Compound D, 5-(2,6-dideoxy-2-fluoro-α-L-galactopyranosyloxy)-6-hydroxynaphtho[2,3-f]quinoline-7,12-dione] | 8.2 | IC50 [5, 21]: 0.2 µg/mL (≈ 0.455 µM); anticancer activities against DLD-1, times higher than those of adriamycin [6]: 16 times
3 | – | – | – | – | – | – | – | – | 4.15 (≈ 9.19 µM) | 3.33 (≈ 7.38 µM) | 3.46 (≈ 7.66 µM) | 2.59 (≈ 5.74 µM) | – | 1.59 (≈ 3.52 µM) | 1.54 (≈ 3.41 µM) | 1.51 (≈ 3.34 µM) | – | 1.13 (≈ 2.5 µM) | 1.65 (≈ 3.66 µM) | CO[C@H]1[C@H](Oc2c(O)c3c(c4cccnc24)C(=O)c2ccccc2C3=O)O[C@@H](C)[C@@H](O)[C@H]1O [Compound B, 5-(6-deoxy-2-O-methyl-α-L-talopyranosyloxy)-6-hydroxynaphtho[2,3-f]quinoline-7,12-dione] | – | anticancer activities against DLD-1, times higher than those of adriamycin [6]: 1.7 times
4 | – | – | – | – | – | – | – | – | 1.08 (≈ 2.46 µM) | 1.11 (≈ 2.53 µM) | 1.12 (≈ 2.55 µM) | 1.26 (≈ 2.87 µM) | 0.26 (≈ 0.592 µM) | 0.08 (≈ 0.182 µM) | 0.1 (≈ 0.228 µM) | 0.33 (≈ 0.751 µM) | 0.54 (≈ 1.23 µM) | 0.04 (≈ 0.091 µM) | 0.16 (≈ 0.364 µM) | C[C@@H]1O[C@H](Oc2c(O)c3c(c4cccnc24)C(=O)c2ccccc2C3=O)[C@@H](F)[C@H](O)[C@@H]1O [Compound E, 5-(2,6-dideoxy-2-fluoro-β-L-galactopyranosyloxy)-6-hydroxynaphtho[2,3-f]quinoline-7,12-dione] | 11 | IC50 [5, 21]: 0.23 µg/mL (≈ 0.523 µM)
5 | 0.79 (≈ 1.36 µM) | 0.55 (≈ 0.946 µM) | 0.52 (≈ 0.894 µM) | 0.68 (≈ 1.17 µM) | 1.13 (≈ 1.94 µM) | 0.65 (≈ 1.12 µM) | 0.42 (≈ 0.722 µM) | 0.64 (≈ 1.1 µM) | – | – | – | – | – | – | – | – | – | – | – | C[C@@H]1O[C@H](Oc2c(O)c3c(c4cccnc24)C(=O)c2ccccc2C3=O)[C@@H](F)[C@H](OC(=O)CCN)[C@@H]1OC(=O)CCN [Compound S, 5-[3,4-di-O-(3-aminopropionyl)-2,6-dideoxy-2-fluoro-β-L-galactopyranosyloxy]-6-hydroxynaphtho[2,3-f] quinoline-7,12-dione] | – | –
